Where “and” joins values, the source holds several entries; their conditions need not be identical. Equal values may be shown once. Read-outs that look alike come from different tables or passages of the source.
Legend:
[1] = target: T1, human β1-adrenoceptor (Homo sapiens, UniProt P08588); experiment: Association and dissociation kinetics of 10, 30 and 100 nM BODIPY-TMR-CGP in CHO-β1 cells (confocal perfusion system, single living cells); type: binding; conditions: for pKD: from kon and koff(slow); for koff(fast): nonspecific component constrained to average CHO-CS dissociation rate
T1 construct: expressed in transfected cells
Description: (§1) Live cell fluorescence imaging was performed on the Zeiss LSM510 laser scanning confocal microscope using a Zeiss Plan-Neofluar ×40 1.3 NA oil-immersion objective in conjunction with a temperature-controlled (37°C) perfusion system to allow the visualization and quantification of BODIPY-TMR-CGP dissociation kinetics under infinite dilution (ID) conditions in single living cells ([25]). Kinetic experiments were performed as described by May et al. ([25]). In brief, cells were grown to near confluence on 32 mm glass coverslips in 6-well plates 1 d prior to experimentation. On the day of experimentation, the coverslip was placed into a tightly closed imaging chamber on a heated (37°C) microscope stage, where it was connected to tubes to facilitate the flow of imaging buffer through the imaging chamber in the absence and presence of BODIPY-TMR-CGP and/or unlabeled ligands at a constant flow rate of ≥4 ml/min.
(§2) For association and dissociation kinetic experiments of 10–100 nM BODIPY-TMR-CGP in CHO-β1 and CHO-CS cells, the cells were exposed to imaging buffer only (30 s baseline fluorescence recording), then BODIPY-TMR-CGP (4.5 min association), and followed again by imaging buffer only (4.5 min dissociation). BODIPY-TMR-CGP was excited using a 543 nm helium-neon laser with emission collected through a 565 nm long-pass filter every 3 s throughout each experiment (512 × 512 pixels, averaging at 2 frames). The pinhole diameter (1 airy unit), laser power (2%), offset, and gain remained constant between the 3 BODIPY-TMR-CGP concentrations and the 2 cell lines used. Membrane-associated BODIPY-TMR-CGP fluorescence was measured by drawing regions of interest (ROIs) around the membranes of 10 single cells of each imaged coverslip, and changes in the average pixel intensity values for each ROI over time were analyzed to obtain association and dissociation rates for each experiment.
(§3) GraphPad Prism 5.0 (GraphPad Software, San Diego, CA, USA) was used to fit all data presented in this study. Association kinetic data were fitted using the following monoexponential association equation: [drawing 1] where Y0 is the level of BODIPY-TMR-CGP binding at time t = 0 (i.e., baseline fluorescence), Plateau is the level of BODIPY-TMR-CGP binding at infinite time, and konobs is the rate of observed association.
The koff is the dissociation rate of BODIPY-TMR-CGP. Where a level of nonspecific binding >10% of total binding was observed, the dissociation kinetic data were fitted to a 2-phase exponential decay function [drawing 5] where Plateau and t are as defined above, and Spanfast and Spanslow represent the proportion of Y0-Plateau accounted for by the fast (koff(fast)) and slow (koff(slow)) dissociation rate, respectively. Within this analysis, koff(fast) and Plateau was constrained to the average rate of dissociation and the average Plateau (in %) reached by BODIPY-TMR-CGP in control CHO-CS cells (i.e., cell not expressing the receptor of interest to determine the nonspecific BODIPY-TMR-CGP binding component).

[2] = system: CHO-CS cells; experiment: Association and dissociation of BODIPY-TMR-CGP in control CHO-CS cells (nonspecific binding); parameters: species or system Chinese hamster; conditions: for koff(fast) / konobs: CHO-CS cells
Source text: Chinese hamster ovary (CHO)-K1 cells were used for all transient transfections. CHO-K1 cells stably expressing the secreted placental alkaline phosphatase reporter gene under the transcriptional control of a 6-cAMP response element promoter (CHO-CS cells) were used as a control, as appropriate. CHO-CS cell lines either expressing human wild-type β1-adrenoceptors (CHO-β1 cells; 1147 fmol/mg protein) ([6]) or human β1-adrenoceptors containing 11 amino acid mutations (G177V, L178I, V179I, C180L, T181M, A184I, I185V, A187G, V189T, L195Q, and W199Y that convert TM4 to the equivalent residues in the β2-adrenoceptor; CHO-β1TM4 cells) ([11]) were used. CHO-K1, CHO-CS, CHO-β1, and CHO-β1TM4 cells were grown at 37°C in CHO growth medium [DMEM/Ham's nutrient mixture F12 containing 10% (v/v) fetal calf serum and 2 mM L-glutamine] in a humidified 5% CO2/95% air atmosphere.
as §1, §2, §3
The koff is the dissociation rate of BODIPY-TMR-CGP. […]

[3] = target: T1, human β1-adrenoceptor; experiment: 3 nM BODIPY-TMR-CGP kinetics and influence of unlabeled ligands on its dissociation rate in CHO-β1 cells under infinite dilution; type: binding
[4] = target: T2, human β1-adrenoceptors containing 11 amino acid mutations that convert TM4 to the β2-adrenoceptor residues (CHO-β1TM4 cells) (Homo sapiens, UniProt P08588, A184I/A187G/C180L/G177V/I185V/L178I/L195Q/T181M/V179I/V189T/W199Y); experiment: 3 nM BODIPY-TMR-CGP dissociation in absence and presence of unlabeled ligands in CHO-β1TM4 cells; type: binding; conditions: infinite dilution, absence of unlabeled ligands
T2 construct: expressed in transfected cells
Description: Chinese hamster ovary (CHO)-K1 cells were used for all transient transfections. CHO-K1 cells stably expressing the secreted placental alkaline phosphatase reporter gene under the transcriptional control of a 6-cAMP response element promoter (CHO-CS cells) were used as a control, as appropriate. […] In BiFC experiments, membrane-associated BODIPY-TMR-CGP fluorescence was measured by drawing ROIs around membranes of cells that were identified to express BiFC-constrained homodimers by examination of the YFP fluorescence. […] The koff is the dissociation rate of BODIPY-TMR-CGP. […] Within this analysis, koff(fast) and Plateau was constrained to the average rate of dissociation and the average Plateau (in %) reached by BODIPY-TMR-CGP in control CHO-CS cells (i.e., cell not expressing the receptor of interest to determine the nonspecific BODIPY-TMR-CGP binding component).

[5] = target: T3, β1YFPN/β1YFPC BiFC-constrained β1-adrenoceptor homodimers (Homo sapiens, UniProt P08588); experiment: 3 nM BODIPY-TMR-CGP dissociation at BiFC-constrained wild-type β1-adrenoceptor homodimers in CHO-K1 cells; type: binding; conditions: infinite dilution, absence of unlabeled ligands
T3 construct: to the C-terminal end of the full-length wild-type human β1-adrenoceptor; expressed in transfected cells; host or cells: CHO-K1 cells, transient co-transfection (pcDNA3.1)
Source text: (§4) The SNAP-β1 construct was generated by fusing the SNAP-tag (New England Biolabs, Ipswich, MA, USA) to the N-terminal end of the wild-type human β1-adrenoceptor. The […] mutation ([7]) was introduced into the β1-YFPC and the SNAP-β1 sequence using the QuikChange site-directed mutagenesis kit (Agilent Technologies, Cheshire, United Kingdom). All sequences were confirmed by DNA sequencing. All receptor constructs were subcloned into pcDNA3.1 vectors. In bimolecular fluorescence complementation (BiFC) experiments, CHO-K1 cells were seeded onto coverslips on day 1 and transiently transfected with YFPN- and YFPC-tagged β1-adrenoceptor recombinant DNA (750 ng total) using Lipofectamine 2000 and Opti-MEM medium according to the manufacturer's instructions on day 2. […] In BiFC experiments, membrane-associated BODIPY-TMR-CGP fluorescence was measured by drawing ROIs around membranes of cells that were identified to express BiFC-constrained homodimers by examination of the YFP fluorescence. […] The koff is the dissociation rate of BODIPY-TMR-CGP. […] Within this analysis, koff(fast) and Plateau was constrained to the average rate of dissociation and the average Plateau (in %) reached by BODIPY-TMR-CGP in control CHO-CS cells (i.e., cell not expressing the receptor of interest to determine the nonspecific BODIPY-TMR-CGP binding component).

[6] = target: T4, β1YFPN/β1D138AYFPC BiFC-constrained β1-adrenoceptor homodimers (Homo sapiens, UniProt P08588); experiment: 3 nM BODIPY-TMR-CGP dissociation at BiFC-constrained wild-type/nonligand-binding β1-adrenoceptor homodimers in CHO-K1 cells; conditions: infinite dilution, absence of unlabeled ligands
T4 construct: to the C-terminal end of the full-length wild-type human β1-adrenoceptor; expressed in transfected cells; host or cells: CHO-K1 cells, transient co-transfection (pcDNA3.1)
Source text: as §4

[7] = target: T5, SNAP-β1D138A β1-adrenoceptor (Homo sapiens, UniProt P08588, D138A); experiment: Confocal imaging of 3 nM BODIPY-TMR-CGP binding to SNAP-tagged D138A β1-adrenoceptor in CHO-K1 cells; conditions: CHO-K1 cells transiently transfected with SNAP-β1D138A, 10 min
T5 construct: expressed in transfected cells; host or cells: CHO-K1 cells, transient transfection (pcDNA3.1)
Source text: The β1-yellow fluorescent protein (YFP)N and β1-YFPC receptor constructs were generated by fusing either the N-terminal fragment of YFP (YFPN; amino acids 1–155) or the C-terminal fragment of YFP (YFPC; amino acids 156–239) to the C-terminal end of the full-length wild-type human β1-adrenoceptor. The SNAP-β1 construct was generated by fusing the SNAP-tag (New England Biolabs, Ipswich, MA, USA) to the N-terminal end of the wild-type human β1-adrenoceptor. The D138A mutation ([7]) was introduced into the β1-YFPC and the SNAP-β1 sequence using the QuikChange site-directed mutagenesis kit (Agilent Technologies, Cheshire, United Kingdom). All sequences were confirmed by DNA sequencing. All receptor constructs were subcloned into pcDNA3.1 vectors.
Confocal microscopy was performed using a Zeiss LSM710 laser scanning microscope with a ×40 1.3 NA oil immersion lens. CHO-K1 cells were grown to 70% confluence in 8-well Labtek borosilicate chambered-cover glasses (Nalgene Nunc International, Fisher Scientific) and transiently transfected with SNAP-β1 or SNAP-β1D138A recombinant DNA using Lipofectamine 2000 and Opti-MEM medium according to the manufacturer’s instructions. […]

[8] = target: T1, human β1-adrenoceptor; conditions: cited from earlier work
[9] = 3 nM BODIPY-TMR-CGP, global fit of association and dissociation traces
[10] = 3 nM BODIPY-TMR-CGP, based on affinity from functional assays

T3 sequence (P08588 whole entry): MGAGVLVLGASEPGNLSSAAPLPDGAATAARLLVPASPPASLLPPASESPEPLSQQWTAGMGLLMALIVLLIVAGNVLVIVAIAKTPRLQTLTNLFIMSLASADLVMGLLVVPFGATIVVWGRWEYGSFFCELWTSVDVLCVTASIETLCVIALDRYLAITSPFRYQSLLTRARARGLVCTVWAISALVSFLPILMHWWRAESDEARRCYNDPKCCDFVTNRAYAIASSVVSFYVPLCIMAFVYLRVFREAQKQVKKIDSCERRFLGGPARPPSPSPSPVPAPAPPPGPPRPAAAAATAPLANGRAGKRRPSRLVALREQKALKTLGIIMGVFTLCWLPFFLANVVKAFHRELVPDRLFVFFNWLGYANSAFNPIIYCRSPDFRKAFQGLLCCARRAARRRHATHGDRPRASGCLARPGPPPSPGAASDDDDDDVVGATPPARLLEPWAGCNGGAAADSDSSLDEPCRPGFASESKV
T3 sequence (P08588 whole entry): as above
T1 sequence (P08588 whole entry, the tested form may be a part): as the sequence (P08588 whole entry) above
T2 sequence (P08588 whole entry G177V/L178I/V179I/C180L/T181M/A184I/I185V/A187G/V189T/L195Q/W199Y): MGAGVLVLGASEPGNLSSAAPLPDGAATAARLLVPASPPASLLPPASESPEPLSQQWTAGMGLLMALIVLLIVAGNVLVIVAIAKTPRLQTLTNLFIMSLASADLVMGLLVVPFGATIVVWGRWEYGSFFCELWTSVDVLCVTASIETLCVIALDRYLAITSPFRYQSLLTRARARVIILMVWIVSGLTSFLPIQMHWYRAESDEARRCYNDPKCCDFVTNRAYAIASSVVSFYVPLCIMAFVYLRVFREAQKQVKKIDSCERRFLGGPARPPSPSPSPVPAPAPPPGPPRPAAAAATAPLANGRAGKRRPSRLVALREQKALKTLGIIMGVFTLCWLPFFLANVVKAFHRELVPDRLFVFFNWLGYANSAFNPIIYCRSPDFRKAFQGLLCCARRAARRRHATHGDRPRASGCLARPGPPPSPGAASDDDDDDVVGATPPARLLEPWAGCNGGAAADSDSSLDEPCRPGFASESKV
T4 sequence (P08588 whole entry): as the sequence (P08588 whole entry) above
T4 sequence (P08588 whole entry D138A partner): as the sequence (P08588 whole entry) above, with D138A counted along it
T5 sequence (P08588 whole entry D138A): as the sequence (P08588 whole entry) above, with D138A counted along it

bordifluoropyrromethane-tetramethylrhodamine-(±)CGP 12177 [BODIPY-TMR-CGP]
kon ([1]; 10 nM BODIPY-TMR-CGP): 5.29 ± 0.79 ×10^7 M^−1⋅min^−1
konobs ([1]; 10 nM BODIPY-TMR-CGP): 0.63 ± 0.08 min⁻¹
pKD ([1]; 10 nM BODIPY-TMR-CGP): 8.71 ± 0.05
koff(slow) ([1]; 10 nM BODIPY-TMR-CGP, monoexponential dissociation): 0.09 ± 0.01 min⁻¹
kon ([1]; 30 nM BODIPY-TMR-CGP): 5.17 ± 0.28 ×10^7 M^−1⋅min^−1
konobs ([1]; 30 nM BODIPY-TMR-CGP): 1.64 ± 0.08 min⁻¹
koff(slow) ([1]; 30 nM BODIPY-TMR-CGP, 2-phase decay): 0.09 ± 0.01 min⁻¹
pKD ([1]; 30 nM BODIPY-TMR-CGP): 8.77 ± 0.08
koff(fast) ([1]; 30 nM BODIPY-TMR-CGP): 0.0412 s⁻¹
kon ([1]; 100 nM BODIPY-TMR-CGP): 2.94 ± 0.12^*^,^# ×10^7 M^−1⋅min^−1
konobs ([1]; 100 nM BODIPY-TMR-CGP): 3.08 ± 0.11 min^−1 and 3.08 ± 0.11^*^,^# min^−1
koff(slow) ([1]; 100 nM BODIPY-TMR-CGP, 2-phase decay): 0.14 ± 0.02^*^,^# min^−1
pKD ([1]; 100 nM BODIPY-TMR-CGP): 8.32 ± 0.06^*^,^#
koff(fast) ([1]; 100 nM BODIPY-TMR-CGP): 0.0412 s⁻¹
koff(fast) ([2]; 30 nM BODIPY-TMR-CGP): 0.041 ± 0.008 s⁻¹
konobs ([2]; 30 nM BODIPY-TMR-CGP): 1.40 ± 0.26 min⁻¹
koff(fast) ([2]; 100 nM BODIPY-TMR-CGP): 0.0412 ± 0.00217 s⁻¹
konobs ([2]; 100 nM BODIPY-TMR-CGP): 1.62 ± 0.13 min⁻¹
average dissociation rate obtained in CHO-CS cells ([2]; average over BODIPY-TMR-CGP concentrations, used as constraint for koff(fast)): 2.47 min⁻¹
association rate constant (kon) [3, 9]: 5.27 ± 0.53 × 10^7 M^−1⋅min^−1
dissociation rate (koff) [3, 9]: 0.0013 ± 0.00017 s⁻¹
pKD [3, 9]: 8.83 ± 0.06
koff of 3 nM BODIPY-TMR-CGP ([3]; infinite dilution, absence of unlabeled ligands, 1-phase dissociation): 0.0015 ± 0.00017 s⁻¹ and 0.0015 s⁻¹
koff of 3 nM BODIPY-TMR-CGP [4]: 0.0011 ± 8.3e-05 s⁻¹ and 0.0012 ± 0.00033 s⁻¹
koff of 3 nM BODIPY-TMR-CGP [5]: 0.00033 ± 0.00017 s⁻¹ and 0.00033 s⁻¹
koff of 3 nM BODIPY-TMR-CGP [6]: 0.0009 ± 0.000183 s⁻¹ and 0.00083 ± 0.00017 s⁻¹
binding of 3 nM BODIPY-TMR-CGP (membrane fluorescence) [7]: no binding
occupancy of the high-affinity β1-adrenoceptor conformation [8, 10]: ~86%
occupancy of the secondary low-affinity β1-adrenoceptor conformation [8, 10]: ~3%
Kd ([8]; functional studies, read-out: affinity value for the high-affinity (orthosteric) β1-adrenoceptor conformation): 0.6 nM
Kd ([8]; read-out: affinity value for the low-affinity β1-adrenoceptor conformation): 87 nM

— PMC4478806 (The FASEB Journal, 2015)
